Where a name gives a salt, the structure may show the parent alone.
Columns and labels:
[1] = Conductivity, pH and buffering capacity of 50 mM solutions of ampholytic buffers; type: physicochemical; conditions: 50 mM solution
Protocol: The conductivities, pH values and buffering capacities of 50 mM solutions of some of the ampholytic buffers of the present invention are listed in Table 1. For comparison purposes, values for histidine (HIS), a widely used low conductivity ampholytic buffer are also included.

[2] = pH of concentrated aqueous solution of the isoelectric buffer after desalting in IET apparatus (equal to pI); type: physicochemical; conditions: isoelectric state after IET desalting
From the text: The aqueous solution was desalted and the ampholytic buffer brought to isoelectric state in an IET apparatus. The pH of the concentrated aqueous solution of isoelectric BCPDEAH was 3.8, equal to its pI value. After liophylization, the solid product was characterized by ^1H- and ^13C-NMR. […] The identity and purity of the final product were further confirmed by high resolution ESI-MS. Only signals corresponding to BCPDEAH and its fragment ions are seen.

[3] = indirect UV detection CE, bare fused silica capillary, 15 kV, T=25, UV 214 nm, BGEs of varied pH
Protocol: Using a 26 :m I.D. bare fused silica capillary, Lt=26.1 cm, Ld=19.7 cm at 15 kV in positive to negative polarity, T=25 EC, UV detector set at 214 nm, conventional CE was carried out in 20 mM tris(hydroxymethyl) aminomethane (Tris) and 20 mM benzylamine BGEs titrated with pTSA.
Using a 26 :m I.D. bare fused silica capillary, Lt=26.1 cm, Ld=19.7 cm at 15 kV in positive to negative polarity, T=25 EC, and the UV detector set at 214 nm, conventional CE was carried out in 20 mM acetic acid BGEs titrated with imidazole and 20 mM pyridine BGEs titrated with pTSA.

pH of the concentrated aqueous solution of isoelectric form, equal to its pI value [2]	Compound	Buffering capacity [1] [mM/pH]	Conductivity [1] [mS/m]	pH [1]	pI [3]
3.8	CC[N+](CC)(CCCC(=O)[O-])CCCC(=O)O [BCPDEAH, N,N-bis(carboxypropyl)diethyl ammonium hydroxide, inner salt]	35.7	18.4	4.15	–
–	N[C@@H](Cc1c[nH]cn1)C(=O)O [HIS, histidine, reference compound]	12.5	3.5	7.44	–
–	O=S(=O)(O)OC(CN1CCOCC1)CN1CCOCC1 [DMSP, 1,3-dimorpholino-2-O-sulfo-propane]	14.7	7.3	5.79	5.8
–	CCCN(CCC)CC(CN(CCC)CCC)OS(=O)(=O)O [BDPSP, 1,3-bis(dipropylamino)-2-O-sulfo-propane]	–	–	–	8.7
–	CN(C)CC(CN(C)C)OS(=O)(=O)O [BDASP, 1,3-bis(N,N-dimethylamino)-2-O-sulfo-propane]	25.0	25.8	7.82	~8.0
–	O=S(=O)(O)OC(CN1CCCCC1)CN1CCCCC1 [DPSP, 1,3-dipiperidino-2-O-sulfo-propane]	20.8	18.1	8.35	8.9
